Source: ChEMBL document CHEMBL1155111, “Identification of a potent, selective, and orally active leukotriene a4 hydrolase inhibitor with anti-inflammatory activity” (J Med Chem, 2008)
In brackets after ≈: the same amount, converted by molar mass. One block for each compound: values may come before it.

Tests used:
[1] = Solubility at pH 7.4; assay type: physicochemical; details: buffer
[2] = Chemical stability assessed as half life of hydrolysis at pH 2; assay type: physicochemical; details: buffer
[3] = Chemical stability assessed as half life of hydrolysis at pH 7.4; assay type: physicochemical; details: buffer
[4] = Cmax in rat at 3 mg/kg, iv; assay type: ADME, organism-based; set-up: dose 3 mg/kg, route intravenous; details: in vivo
[5] = AUC (0 to infinity) in rat at 3 mg/kg, iv; assay type: ADME, organism-based; set-up: time infinity, dose 3 mg/kg, route intravenous; details: plasma
[6] = Clearance in rat at 3 mg/kg, iv; assay type: ADME, organism-based; set-up: dose 3 mg/kg, route intravenous; details: in vivo
[7] = Volume of distribution at steady state in rat at 3 mg/kg, iv; assay type: ADME, organism-based; set-up: dose 3 mg/kg, route intravenous; details: in vivo, read-out: Vdss
[8] = Half life in rat plasma at 3 mg/kg, iv; assay type: ADME, organism-based; set-up: dose 3 mg/kg, route intravenous
[9] = Tmax in rat at 30 mg/kg, po; assay type: ADME, organism-based; set-up: dose 30 mg/kg, route oral; details: in vivo
[10] = Cmax in rat at 30 mg/kg, po; assay type: ADME, organism-based; set-up: dose 30 mg/kg, route oral; details: in vivo
[11] = AUC (0 to infinity) in rat at 30 mg/kg, po; assay type: ADME, organism-based; set-up: time infinity, dose 30 mg/kg, route oral; details: plasma
[12] = Terminal elimination half life in rat plasma at 30 mg/kg, po; assay type: ADME, organism-based; set-up: dose 30 mg/kg, route oral
[13] = Bioavailability in rat at 30 mg/kg, po; assay type: ADME, organism-based; details: in vivo
[14] = Cmax in Beagle dog at 3 mg/kg, iv; assay type: ADME, organism-based, Canis lupus familiaris; set-up: dose 3 mg/kg, route intravenous; details: in vivo
[15] = AUC (0 to infinity) in Beagle dog at 3 mg/kg, iv; assay type: ADME, organism-based, Canis lupus familiaris; set-up: time infinity, dose 3 mg/kg, route intravenous; details: plasma
[16] = Clearance in Beagle dog at 3 mg/kg, iv; assay type: ADME, organism-based, Canis lupus familiaris; set-up: dose 3 mg/kg, route intravenous; details: in vivo
[17] = Volume of distribution at steady state in Beagle dog at 3 mg/kg, iv; assay type: ADME, organism-based, Canis lupus familiaris; set-up: dose 3 mg/kg, route intravenous; details: in vivo, read-out: Vdss
[18] = Half life in Beagle dog plasma at 3 mg/kg, iv; assay type: ADME, organism-based, Canis lupus familiaris; set-up: dose 3 mg/kg, route intravenous
[19] = Tmax in Beagle dog at 30 mg/kg, po; assay type: ADME, organism-based, Canis lupus familiaris; set-up: dose 30 mg/kg, route oral; details: in vivo
[20] = Cmax in Beagle dog at 30 mg/kg, po; assay type: ADME, organism-based, Canis lupus familiaris; set-up: dose 30 mg/kg, route oral; details: in vivo
[21] = AUC (0 to infinity) in Beagle dog at 30 mg/kg, po; assay type: ADME, organism-based, Canis lupus familiaris; set-up: time infinity, dose 30 mg/kg, route oral; details: plasma
[22] = Half life in Beagle dog plasma at 30 mg/kg, po; assay type: ADME, organism-based, Canis lupus familiaris; set-up: dose 30 mg/kg, route oral
[23] = Bioavailability in Beagle dog at 30 mg/kg, po; assay type: ADME, organism-based, Canis lupus familiaris; details: in vivo
[24] = Metabolic stability in human liver microsomes assessed as elimination half life; assay type: ADME, Microsome
[25] = Metabolic stability in rat liver S9 fraction assessed as elimination half life; assay type: ADME, subcellular
[26] = Metabolic stability in mouse liver S9 fraction assessed as elimination half life; assay type: ADME, subcellular
[27] = Metabolic stability in dog liver S9 fraction assessed as elimination half life; assay type: ADME, subcellular, Canis lupus familiaris
[28] = Cmax in rat at 2 mg/kg, iv; assay type: ADME, organism-based; set-up: dose 2 mg/kg, route intravenous; details: in vivo
[29] = AUC (0 to infinity) in rat at 2 mg/kg, iv; assay type: ADME, organism-based; set-up: time infinity, dose 2 mg/kg, route intravenous; details: plasma
[30] = Clearance in rat at 2 mg/kg, iv; assay type: ADME, organism-based; set-up: dose 2 mg/kg, route intravenous; details: in vivo
[31] = Volume of distribution at steady state in rat at 2 mg/kg, iv; assay type: ADME, organism-based; set-up: dose 2 mg/kg, route intravenous; details: in vivo, read-out: Vdss
[32] = Half life in rat plasma at 2 mg/kg, iv; assay type: ADME, organism-based; set-up: dose 2 mg/kg, route intravenous
[33] = Tmax in rat at 10 mg/kg, po; assay type: ADME, organism-based; set-up: dose 10 mg/kg, route oral; details: in vivo
[34] = Cmax in rat at 10 mg/kg, po; assay type: ADME, organism-based; set-up: dose 10 mg/kg, route oral; details: in vivo
[35] = AUC (0 to infinity) in rat at 10 mg/kg, po; assay type: ADME, organism-based; set-up: time infinity, dose 10 mg/kg, route oral; details: plasma
[36] = Terminal elimination half life in rat plasma at 10 mg/kg, po; assay type: ADME, organism-based; set-up: dose 10 mg/kg, route oral
[37] = Bioavailability in rat at 10 mg/kg, po; assay type: ADME, organism-based; details: in vivo
[38] = Cmax in Beagle dog at 2 mg/kg, iv; assay type: ADME, organism-based, Canis lupus familiaris; set-up: dose 2 mg/kg, route intravenous; details: in vivo
[39] = AUC (0 to infinity) in Beagle dog at 2 mg/kg, iv; assay type: ADME, organism-based, Canis lupus familiaris; set-up: time infinity, dose 2 mg/kg, route intravenous; details: plasma
[40] = Clearance in Beagle dog at 2 mg/kg, iv; assay type: ADME, organism-based, Canis lupus familiaris; set-up: dose 2 mg/kg, route intravenous; details: in vivo
[41] = Volume of distribution at steady state in Beagle dog at 2 mg/kg, iv; assay type: ADME, organism-based, Canis lupus familiaris; set-up: dose 2 mg/kg, route intravenous; details: in vivo, read-out: Vdss
[42] = Half life in Beagle dog plasma at 2 mg/kg, iv; assay type: ADME, organism-based, Canis lupus familiaris; set-up: dose 2 mg/kg, route intravenous
[43] = Tmax in Beagle dog at 10 mg/kg, po; assay type: ADME, organism-based, Canis lupus familiaris; set-up: dose 10 mg/kg, route oral; details: in vivo
[44] = Cmax in Beagle dog at 10 mg/kg, po; assay type: ADME, organism-based, Canis lupus familiaris; set-up: dose 10 mg/kg, route oral; details: in vivo
[45] = AUC (0 to infinity) in Beagle dog at 10 mg/kg, po; assay type: ADME, organism-based, Canis lupus familiaris; set-up: time infinity, dose 10 mg/kg, route oral; details: plasma
[46] = Half life in Beagle dog plasma at 10 mg/kg, po; assay type: ADME, organism-based, Canis lupus familiaris; set-up: dose 10 mg/kg, route oral
[47] = Bioavailability in Beagle dog at 10 mg/kg, po; assay type: ADME, organism-based, Canis lupus familiaris; details: in vivo

solubility [1]: 160 µg/mL (≈ 473 µM) | half-life [2]: 1.5 h | half-life [3]: > 16.7 h | Cmax [4]: 3800 nM | AUC(0-inf) [5]: 4.8 µM·h | clearance [6]: 9.5 mL/min | Vd [7]: 7 L/kg | half-life [8]: 2.6 h | Tmax [9]: 4.6 h | Cmax [10]: 1100 nM | AUC(0-inf) [11]: 15 µM·h | half-life [12]: 5.2 h | bioavailability [13]: 31% | Cmax [14]: 4500 nM | AUC(0-inf) [15]: 3.9 µM·h | clearance [16]: 13 mL/min | Vd [17]: 3.2 L/kg | half-life [18]: 1 h | Tmax [19]: 2.3 h | Cmax [20]: 1200 nM | AUC(0-inf) [21]: 4.2 µM·h | half-life [22]: 2.3 h | bioavailability [23]: 11% | half-life [24]: > 1.67 h | half-life [25]: > 1.67 h | half-life [26]: 0.667 h | half-life [27]: 0.9 h
SMILES: c1ccc2oc(Oc3ccc(OCCN4CCCCC4)cc3)nc2c1

Cmax [28]: 2200 nM | AUC(0-inf) [29]: 10 µM·h | clearance [30]: 3 mL/min | Vd [31]: 2.5 L/kg | half-life [32]: 3.5 h | Tmax [33]: 5.3 h | Cmax [34]: 2200 nM | AUC(0-inf) [35]: 33 µM·h | half-life [36]: 5.6 h | bioavailability [37]: 65% | Cmax [38]: 2800 nM | AUC(0-inf) [39]: 8 µM·h | clearance [40]: 93.3 mL/min | Vd [41]: 3.2 L/kg | half-life [42]: 3.6 h | Tmax [43]: 1 h | Cmax [44]: 26000 nM | AUC(0-inf) [45]: 60.3 µM·h | half-life [46]: 6.9 h | bioavailability [47]: 150%
SMILES: O=C(CO)NC1CCN(Cc2ccc(Oc3nc4ccccc4s3)cc2)CC1
